Values of other authors in patent US6531463B1, “Method for producing a fat mixture” (Spice Sciences Oy, priority 1998, dated 2003).

Tests used:
[1] = system: absorption of cholesterol; settings: for decrease of the absorption of cholesterol: nine adult patients, 5 days, 500 mg of cholesterol, 1 gram of β-sitosterol or 2 grams of β-sitosteryl oleate
serum cholesterol = settings: in vivo
[2] = administered orally
cholesterol levels [3] = settings: added to the feed of cholesterol fed chicken
[4] = system: cholesterol levels, atherogenesis; settings: added to the feed of cholesterol fed rabbits
[5] = system: absorption of cholesterol
cholesterol levels [6] = settings: preparations studied in 1950's and 1960's

| Compound | reduction of the absorption of cholesterol from food ([1]; 1 gram of β-sitosterol, food containing 500 mg of cholesterol) [%] | decrease of the absorption of cholesterol [1] [%] | lowering of the LDL-cholesterol level (serum cholesterol) [%] | lowering of the total serum cholesterol level (serum cholesterol) | proportion absorbed [2] | cholesterol levels (cholesterol levels [3]) | atherogenesis [4] | cholesterol levels [4] | absorption of cholesterol ([5]; female rats (Uchita et al.)) | cholesterol balance in plasma and liver ([5]; female rats (Uchita et al.)) | inhibition of absorption of cholesterol ([5]; rats (Vahouny et al.)) [%] | lowering of cholesterol levels (cholesterol levels [6]) |
| --- | --- | --- | --- | --- | --- | --- | --- | --- | --- | --- | --- | --- |
| CC[C@H](CC[C@@H](C)[C@H]1CC[C@H]2[C@@H]3CC=C4C[C@@H](O)CC[C@]4(C)[C@H]3CC[C@]12C)C(C)C [β-sitosterol, stigmasta-5-en-3β-ole] | 42 | 42 | 19 | 10-15% | less than 5% | cholesterol levels were lowered | prevented atherogenesis | cholesterol levels were lowered |  |  |  |  |
| CCCCCCCC/C=C\CCCCCCCC(=O)O[C@H]1CC[C@@]2(C)C(=CC[C@H]3[C@@H]4CC[C@H]([C@H](C)CC[C@@H](CC)C(C)C)[C@@]4(C)CC[C@@H]32)C1 [β-sitoteryl oleate, β-sitosteryl oleate] |  | 33 |  |  |  |  |  |  |  |  |  |  |
| sitosterol |  |  |  |  |  |  |  |  | inhibits absorption of cholesterol | lowers cholesterol balance in plasma and liver | 54 | about 10% |
